# Earlier results as cited in patent US20130172260A1, “PREVENTION OF INDWELLING DEVICE RELATED INFECTION: COMPOSITION AND METHODS” (priority 2003, published 2013).
# System: Staphylococcus epidermidis
# Details: 5 milli Molar in a medium
smiles,measurement,value
O=C(O)c1ccccc1O [salicylic acid],inhibited both growth and Biofilm production,up to 55%
